# Source: ChEMBL document CHEMBL5370659 (J Med Chem, 2023)
# pIC50: −log10 of the molar value. Active and inactive are the calls of the source. No cut-off for these calls is given here.
# Key:
# [1] = Initial drug concentration in Sprague-Dawley rat at 10 mg/kg, iv measured upto 1440 mins by LC-MS/MS analysis; assay type: ADME, organism-based; conditions: in vivo
# [2] = AUC (0 to last) in Sprague-Dawley rat at 50 mg/kg, po measured upto 1440 mins by LC-MS/MS analysis; assay type: ADME, organism-based; parameters: dose 50 mg/kg, time < 1440 min, route po; conditions: in vivo
# [3] = AUCExtra in Sprague-Dawley rat at 50 mg/kg, po measured upto 1440 mins by LC-MS/MS analysis; assay type: ADME, organism-based; conditions: in vivo, 24 h
# [4] = Half life in CD-1 (ICR) mouse at 50 mg/kg, po measured upto 1440 mins by LC-MS/MS analysis; assay type: ADME, organism-based; conditions: in vivo
# MC-38 [5] = assay: Antitumor activity against mouse MC-38 cells subcutaneously transplanted in C57BL/6N mouse assessed as reduction in absolute tumor volume at 50 mg/kg, po bid measured on day 20 relative to control; assay type: functional; conditions: MC-38, 480 h, route sc, time 20 day
# Mus musculus [6] = assay: Effect on total travelled distance of C57BL/6N mouse at 20 mg/kg, po treated for 14 days by locomotor activity test; assay type: functional, organism-based; conditions: time 14.0 day
# [7] = Drug uptake in Sprague-Dawley rat lung at 50 mg/kg, po measured at 0.5 hrs by LC-MS/MS analysis; assay type: ADME, organism-based; conditions: read-out: Drug uptake
# Mus musculus [8] = assay: Effect on total duration of immobility in C57BL/6N mouse at 10 mg/kg, po treated for 14 days by tail suspension test; assay type: functional, organism-based; conditions: time 14.0 day
# [9] = Half life in Sprague-Dawley rat at 50 mg/kg, po measured upto 1440 mins by LC-MS/MS analysis; assay type: ADME, organism-based; conditions: in vivo
# [10] = MRT (0 to last) in Sprague-Dawley rat at 20 mg/kg, po measured upto 1440 mins by LC-MS/MS analysis; assay type: ADME, organism-based; conditions: in vivo
# [11] = AUMCExtra in Sprague-Dawley rat at 20 mg/kg, po measured upto 1440 mins by LC-MS/MS analysis; assay type: ADME, organism-based; conditions: in vivo, 24 h
# [12] = Permeability across basal to apical side in MDCK-MDR1 cells at pH 6.5/7.4 measured at 5 uM by LC-MS/MS analysis; assay type: ADME, cell-based, Canis lupus familiaris; conditions: dog, MDCK-MDR1, pH 6.5
# [13] = Toxicity in C57BL/6N mouse subcutaneously transplanted with mouse MC-38 cells assessed as general toxic effects at 50 mg/kg, po bid measured on day 20; assay type: organism-based; conditions: in vivo, sc, 480 h, time 20 day
# [14] = Clearance in Sprague-Dawley rat at 10 mg/kg, iv measured upto 1440 mins by LC-MS/MS analysis; assay type: ADME, organism-based; conditions: in vivo
# [15] = Tlast in Sprague-Dawley rat at 50 mg/kg, po measured upto 1440 mins by LC-MS/MS analysis; assay type: ADME, organism-based; conditions: in vivo, 24 h
# [16] = target: T1, Tryptophan 5-hydroxylase 1 (Homo sapiens) (UniProt P17752); assay: Binding affinity to […] (unknown origin) assessed as association rate constant by surface plasmon resonance analysis
# T1 sequence (whole entry): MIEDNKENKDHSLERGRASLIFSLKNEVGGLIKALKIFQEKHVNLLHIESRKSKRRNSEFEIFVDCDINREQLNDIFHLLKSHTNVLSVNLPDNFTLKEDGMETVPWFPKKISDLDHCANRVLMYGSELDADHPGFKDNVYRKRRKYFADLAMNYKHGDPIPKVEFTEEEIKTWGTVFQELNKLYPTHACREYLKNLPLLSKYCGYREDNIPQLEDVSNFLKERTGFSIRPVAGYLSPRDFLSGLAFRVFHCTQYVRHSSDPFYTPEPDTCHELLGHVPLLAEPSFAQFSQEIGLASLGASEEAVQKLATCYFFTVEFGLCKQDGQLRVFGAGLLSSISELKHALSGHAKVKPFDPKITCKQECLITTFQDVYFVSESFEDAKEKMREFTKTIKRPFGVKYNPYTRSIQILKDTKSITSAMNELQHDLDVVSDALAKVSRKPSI
# MC-38 [17] = assay: Antitumor activity against mouse MC-38 cells subcutaneously transplanted in C57BL/6N mouse assessed as reduction in AUC of tumor growth at 50 mg/kg, po bid measured on day 20 relative to control; assay type: functional; conditions: MC-38, 480 h, route sc, time 20 day
# [18] = AUMCExtra in Sprague-Dawley rat at 50 mg/kg, po measured upto 1440 mins by LC-MS/MS analysis; assay type: ADME, organism-based; conditions: in vivo, 24 h
# [19] = AUC (0 to infinitive) in Sprague-Dawley rat at 50 mg/kg, po measured upto 1440 mins by LC-MS/MS analysis; assay type: ADME, organism-based; parameters: dose 50 mg/kg, time < 1440 min, route po; conditions: in vivo
# [20] = Inhibition of BCRP in human Caco-2 cells seeded in polyethylene membranes assessed as permeation in presence or absence of E3S measured for 2 hrs by LC-MS/MS analysis based transporter assay; assay type: cell-based
# [21] = Oral bioavailability in Sprague-Dawley rat at 20 mg/kg measured upto 1440 mins by LC-MS/MS analysis; assay type: ADME, organism-based; conditions: in vivo
# [22] = Brain homogenate binding in mouse; assay type: ADME, tissue-based
# [23] = MRT (0 to infinitive) in Sprague-Dawley rat at 20 mg/kg, po measured upto 1440 mins by LC-MS/MS analysis; assay type: ADME, organism-based; conditions: in vivo
# [24] = Drug uptake in Sprague-Dawley rat lung at 50 mg/kg, po measured at 2 hrs by LC-MS/MS analysis; assay type: ADME, organism-based; conditions: read-out: Drug uptake
# [25] = Drug uptake in Sprague-Dawley rat brain at 20 mg/kg, po measured at 2 hrs by LC-MS/MS analysis; assay type: ADME, organism-based; conditions: in vivo, BLD = below limit of detection
# [26] = target: Large neutral amino acids transporter small subunit 1 (Homo sapiens, UniProt Q01650); assay: Inhibition of human LAT1 transfected in MDCK-II cells co-transfected with 4F2HC or GFP using [3H]-leucine as probe substrate at 20 uM incubated for 10 mins by scintillation counting analysis; assay type: cell-based
# [27] = Reduction in serotonin level in C57BL/6N mouse duodenum at 15 mg/kg, po bid treated for 7 days by HPLC analysis relative to control; assay type: functional; conditions: 168 h, time 7 day
# [28] = Drug uptake in CD-1 (ICR) mouse brain at 50 mg/kg measured 2 hrs by LC-MS/MS analysis; assay type: ADME, organism-based; conditions: read-out: Drug uptake
# [29] = target: T2, Tryptophan 5-hydroxylase 1 (Homo sapiens, UniProt P17752); assay: Inhibition of THP1 in human serotonergic BON cells assessed as reduced the intracellular serotonin levels incubated for 72 hrs; assay type: cell-based
# T2 sequence (P17752 whole entry): T1 sequence (whole entry)
# [30] = AUC (0 to infinitive) in Sprague-Dawley rat at 20 mg/kg, po measured upto 1440 mins by LC-MS/MS analysis; assay type: ADME, organism-based; parameters: dose 20 mg/kg, time < 1440 min, route po; conditions: in vivo
# Mus musculus [31] = assay: Effect on total travelled distance of C57BL/6N mouse at 100 mg/kg, po treated for 14 days by locomotor activity test; assay type: functional, organism-based; conditions: time 14.0 day
# [32] = Plasma concentration in Sprague-Dawley rat at 20 mg/kg, po measured at 0.5 hrs by LC-MS/MS analysis; assay type: ADME, organism-based
# [33] = Toxicity in C57BL/6N mouse assessed as body weight change at 1.5 to 15 mg/kg, po bid treated for 7 days; assay type: organism-based; conditions: in vivo, 168 h, dose 1.5-15 mg/kg, time 7 day
# [34] = Drug uptake in Sprague-Dawley rat brain at 20 mg/kg, po measured at 0.5 hrs by LC-MS/MS analysis; assay type: ADME, organism-based; conditions: in vivo, BLD = below limit of detection
# [35] = Tlast in Sprague-Dawley rat at 20 mg/kg, po measured upto 1440 mins by LC-MS/MS analysis; assay type: ADME, organism-based; conditions: in vivo, 24 h
# Chain of Large neutral amino acids transporter small subunit 1 (Q01650 whole entry): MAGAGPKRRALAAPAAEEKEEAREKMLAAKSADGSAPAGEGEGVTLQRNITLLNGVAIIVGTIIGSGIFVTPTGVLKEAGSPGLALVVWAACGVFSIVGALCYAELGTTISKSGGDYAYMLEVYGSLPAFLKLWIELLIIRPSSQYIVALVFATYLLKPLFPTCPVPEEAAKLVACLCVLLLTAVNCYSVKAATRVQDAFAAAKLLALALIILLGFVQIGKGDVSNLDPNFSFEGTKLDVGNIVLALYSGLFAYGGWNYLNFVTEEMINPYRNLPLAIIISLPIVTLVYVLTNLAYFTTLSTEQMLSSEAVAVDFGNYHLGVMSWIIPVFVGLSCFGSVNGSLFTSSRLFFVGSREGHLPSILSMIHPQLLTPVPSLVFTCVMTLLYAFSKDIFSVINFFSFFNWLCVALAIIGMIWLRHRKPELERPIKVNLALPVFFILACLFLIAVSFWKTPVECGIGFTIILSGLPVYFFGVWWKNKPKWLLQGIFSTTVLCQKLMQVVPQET
compound,measurement,setting,value
CCn1c(=O)[nH]c(=O)c2c1nc(Cc1cn3cc(C)sc3n1)n2CC1COC1,C0 at 24 h,[1],16300 ng/mL
same,AUC(0-t) at 24 h,[2],8180 ng·h/mL
same,%AUCextra,[3],0.44%
same,half-life,[4],106 min
same,inhibition in vivo at 50 mg/kg,MC-38 [5],35%
same,Activity,Mus musculus [6],inactive
same,concentration at 0.5 h,[7],3160 ng/g
same,Activity,Mus musculus [8],inactive
same,half-life,[9],205 min
same,MRT last at 24 h,[10],2.91 h
same,AUMC,[11],8.44%
same,Papp B→A at 5 µM,[12],15 ×10⁻⁶ cm/s
same,Activity,[13],Non-Toxic
same,clearance,[14],33.2 mL/min/kg
same,Tlast,[15],24 h
same,Ka,[16],2.29 10^6/M/s
same,inhibition in vivo at 50 mg/kg,MC-38 [17],35%
same,AUMC,[18],4.6%
same,AUC(0-inf),[19],8220 ng·h/mL
same,pIC50,[20],< 4.00
same,bioavailability,[21],33%
same,Activity,[22],72%
same,MRT inf,[23],3.14 h
same,concentration at 2 h,[24],391 ng/g
same,Drug uptake,[25],Bld
same,inhibition (INH),[26],Not Active
same,inhibition in vivo at 15 mg/kg,[27],50%
same,concentration at 2 h,[28],46 ng/g
same,pIC50,[29],6.02
same,AUC(0-inf),[30],3320 ng·h/mL
same,Activity,Mus musculus [31],inactive
same,concentration at 0.5 h,[32],1420 ng/mL
same,Activity,[33],Non-Toxic
same,Drug uptake,[34],Bld
same,Tlast,[35],24 h
